For test [1], the target named is T1, human pancreas-specific protein disulfide isomerase (PDIp) (Homo sapiens, UniProt Q13087, Q265L).
T1 sequence (Q13087 153-366 Q265L limits assumed): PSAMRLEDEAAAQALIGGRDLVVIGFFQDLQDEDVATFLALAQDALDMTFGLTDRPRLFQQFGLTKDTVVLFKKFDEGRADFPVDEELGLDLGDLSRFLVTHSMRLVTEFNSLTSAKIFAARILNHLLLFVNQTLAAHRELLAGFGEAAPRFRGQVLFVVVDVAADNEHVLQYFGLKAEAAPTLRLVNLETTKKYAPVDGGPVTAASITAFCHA
The test can be described thus: [3H]E2 saturation radioligand binding.

Test [2] addresses T2, human pancreas-specific protein disulfide isomerase (PDIp) (Homo sapiens, UniProt Q13087).
T2 sequence (Q13087 22-525): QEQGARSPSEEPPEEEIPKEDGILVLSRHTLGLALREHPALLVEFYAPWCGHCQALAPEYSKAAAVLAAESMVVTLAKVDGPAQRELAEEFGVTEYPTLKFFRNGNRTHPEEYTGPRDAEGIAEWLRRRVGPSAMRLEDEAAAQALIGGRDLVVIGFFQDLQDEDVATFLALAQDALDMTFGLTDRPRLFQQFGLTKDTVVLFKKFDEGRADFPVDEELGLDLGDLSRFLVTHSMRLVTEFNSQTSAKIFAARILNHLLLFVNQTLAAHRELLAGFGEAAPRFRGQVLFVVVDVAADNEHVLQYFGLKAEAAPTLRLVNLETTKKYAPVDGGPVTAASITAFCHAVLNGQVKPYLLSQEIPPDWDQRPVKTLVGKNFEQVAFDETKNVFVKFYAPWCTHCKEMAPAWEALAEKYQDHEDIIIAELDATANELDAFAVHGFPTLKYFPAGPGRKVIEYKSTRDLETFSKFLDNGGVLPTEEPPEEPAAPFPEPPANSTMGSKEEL
The test can be described thus: [3H]E2 saturation radioligand binding with Scatchard plot.

In test [3] the target is T2, human pancreas-specific protein disulfide isomerase (PDIp). The test can be described thus: competition with [3H]E2 radioligand binding at […].

Take `C[C@]12CC[C@@H]3c4ccc(O)cc4CC[C@H]3[C@@H]1CC[C@@H]2O` [E2, Estradiol]: the Kd in test [1] was 185 ± 8 nM; in test [2], approximately 170 nM.
On to `C[C@]12CC[C@@H]3c4ccc(O)cc4CC[C@H]3[C@@H]1C[C@@H](O)[C@@H]2O` [E3], for which the “competition with [3H]E2 radioligand binding at 10 μM” value in test [3] was “could efficiently compete with [^3H]E2 for binding to the b-b′ fragment or the full-length PDIp”.

One may read the Kd as a measure of binding affinity in units of concentration. Low readings indicate tighter binding, high ones weaker binding.

The values are drawn from publication PMC3070202 (Biochemistry, 2010).
